Columns and labels:
Human δ-opioid (DOP) = biological target: T1, Human δ-opioid (DOP) (Homo sapiens, UniProt P41143); assay: Radioligand binding, human δ-opioid (DOP) membranes, FlashPlate, [3H]-Bremazocine; conditions: compound at 10 μM; [3H]-Bremazocine, FlashPlate
T1 construct: purchased Perkin Elmer Biosignal
Summary of the method: (§1)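 Cloned human receptor membranes were coated onto FlashPlate wells and incubated with radioligand and compound (added from a 0.5 mM DMSO daughter plate) for 1 hour at room temperature in the dark. Scintillation counting gave percent inhibition, with DMSO defining total and reference ligand defining non-specific binding.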

Human κ-Opioid (KOP) = biological target: T2, Human κ-Opioid (KOP) (Homo sapiens, UniProt P41145); assay: Radioligand binding, human κ-opioid (KOP) membranes, filtration, [3H]-Diprenorphine; conditions: compound at 10 μM; [3H]-Diprenorphine, filtration
T2 construct: purchased Perkin Elmer Biosignal
Summary of the method: (§2)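 Filtration binding on cloned human receptor membranes (1 Unit/well), [125I]-Substance P for NK1 and [3H]-Diprenorphine for KOP, 1 h at room temperature. Filters PEI-presoaked, washed with cold 50 mM Tris-HCl pH 7.4, counted by scintillation; percent inhibition calculated, reference ligand defining non-specific binding.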

Human Melanocortin (MC3) = biological target: T3, Human Melanocortin (MC3) (Homo sapiens, UniProt P41968); assay: Radioligand binding, human melanocortin MC3 membranes, FlashPlate, [125I]-NDP-αMSH; conditions: compound at 10 μM; [125I]-NDP-αMSH, FlashPlate
T3 construct: purchased Perkin Elmer Biosignal
Summary of the method: as §1

Human Melanocortin (MC4) = biological target: T4, Human Melanocortin (MC4) (Homo sapiens, UniProt P32245); assay: Radioligand binding, human melanocortin MC4 membranes, FlashPlate, [125I]-NDP-αMSH; conditions: compound at 10 μM; [125I]-NDP-αMSH, FlashPlate
T4 construct: purchased Perkin Elmer Biosignal
Summary of the method: as §1

Human melanocortin (MC5) = biological target: T5, Human melanocortin (MC5) (Homo sapiens, UniProt P33032); assay: Radioligand binding, human melanocortin MC5 membranes, FlashPlate, [125I]-NDP-αMSH; conditions: compound at 10 μM; [125I]-NDP-αMSH, FlashPlate
T5 construct: purchased Perkin Elmer Biosignal
Summary of the method: as §1

[1] = biological target: T6, Human melanin-concentrating hormone (MCH1) (Homo sapiens, UniProt Q99705); assay: Radioligand binding, human melanin-concentrating hormone MCH1 membranes, FlashPlate, [125I]-S36057; conditions: compound at 10 μM; [125I]-S36057, FlashPlate
T6 construct: purchased Perkin Elmer Biosignal
Summary of the method: as §1

Human μ-opioid (MOP) = biological target: T7, Human μ-opioid (MOP) (Homo sapiens, UniProt P35372); assay: Radioligand binding, human μ-opioid (MOP) membranes, FlashPlate, [3H]-Naloxone; conditions: compound at 10 μM; [3H]-Naloxone, FlashPlate
T7 construct: purchased Perkin Elmer Biosignal
Summary of the method: as §1

Human neurokinin (NK1) = biological target: T8, Human neurokinin (NK1) (Homo sapiens, UniProt P25103); assay: Radioligand binding, human neurokinin NK1 membranes, filtration, [125I]-Substance P; conditions: compound at 10 μM; [125I]-Substance P, filtration
T8 construct: purchased Perkin Elmer Biosignal
Summary of the method: as §2

[2] = biological target: T9, Human neuropeptide Y (NPY-Y1) (Homo sapiens, UniProt P25929); assay: Radioligand binding, human neuropeptide Y NPY-Y1 membranes, FlashPlate, [125I]-PYY; conditions: compound at 10 μM; [125I]-PYY, FlashPlate
T9 construct: purchased Perkin Elmer Biosignal
T9 sequence (P25929 1-384): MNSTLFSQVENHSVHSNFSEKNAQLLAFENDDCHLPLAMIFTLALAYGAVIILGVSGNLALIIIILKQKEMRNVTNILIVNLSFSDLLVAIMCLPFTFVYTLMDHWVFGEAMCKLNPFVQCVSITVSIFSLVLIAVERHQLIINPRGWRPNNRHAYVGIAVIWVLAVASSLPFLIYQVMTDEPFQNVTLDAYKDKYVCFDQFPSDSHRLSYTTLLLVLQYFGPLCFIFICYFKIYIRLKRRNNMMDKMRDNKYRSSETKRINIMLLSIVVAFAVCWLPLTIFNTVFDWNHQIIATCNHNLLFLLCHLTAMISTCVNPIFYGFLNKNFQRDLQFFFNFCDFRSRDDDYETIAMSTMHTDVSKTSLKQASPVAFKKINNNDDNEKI
Summary of the method: as §1

Human opioid (ORL1) = biological target: T10, Human opioid (ORL1) (Homo sapiens, UniProt P41146); assay: Radioligand binding, human opioid ORL1 membranes, FlashPlate, [125I]-Nociceptin; conditions: compound at 10 μM; [125I]-Nociceptin, FlashPlate
T10 construct: purchased Perkin Elmer Biosignal
Summary of the method: as §1

Mouse urotensin (mUR2) = biological target: T11, Mouse urotensin (mUR2) (Mus musculus, UniProt Q8VIH9); assay: Radioligand binding, mouse urotensin mUR2 membranes, FlashPlate, [125I]-Urotensin II; conditions: compound at 10 μM; [125I]-Urotensin II, FlashPlate
T11 construct: purchased Perkin Elmer Biosignal
T11 sequence (Q8VIH9 1-385): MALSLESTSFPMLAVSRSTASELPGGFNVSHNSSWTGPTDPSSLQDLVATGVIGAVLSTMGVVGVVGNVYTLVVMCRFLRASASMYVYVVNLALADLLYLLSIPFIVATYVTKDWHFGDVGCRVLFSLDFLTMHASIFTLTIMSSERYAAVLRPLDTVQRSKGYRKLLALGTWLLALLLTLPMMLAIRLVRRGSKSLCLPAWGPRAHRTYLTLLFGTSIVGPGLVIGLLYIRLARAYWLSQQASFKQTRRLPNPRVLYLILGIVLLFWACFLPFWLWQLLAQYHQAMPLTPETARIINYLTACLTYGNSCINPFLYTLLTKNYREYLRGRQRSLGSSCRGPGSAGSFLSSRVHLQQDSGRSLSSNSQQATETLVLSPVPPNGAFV
Summary of the method: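 Cloned mouse urotensin (mUR2) receptor membranes from Perkin Elmer Biosignal were immobilized in FlashPlate microplates using a proprietary coating. Each well got 19.5 μl buffer, then 0.5 μl of DMSO, reference ligand, or compound. Adding 5 μl of [125I]-Urotensin II, diluted to 5× final concentration in binding buffer, started binding. Plates were sealed with TopSeal-A and incubated 1 hour at room temperature in the dark. Wells were counted for 30 seconds each on a TopCount after a 60-second delay, and percentage inhibition was calculated.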

T10 sequence (P41146 whole entry): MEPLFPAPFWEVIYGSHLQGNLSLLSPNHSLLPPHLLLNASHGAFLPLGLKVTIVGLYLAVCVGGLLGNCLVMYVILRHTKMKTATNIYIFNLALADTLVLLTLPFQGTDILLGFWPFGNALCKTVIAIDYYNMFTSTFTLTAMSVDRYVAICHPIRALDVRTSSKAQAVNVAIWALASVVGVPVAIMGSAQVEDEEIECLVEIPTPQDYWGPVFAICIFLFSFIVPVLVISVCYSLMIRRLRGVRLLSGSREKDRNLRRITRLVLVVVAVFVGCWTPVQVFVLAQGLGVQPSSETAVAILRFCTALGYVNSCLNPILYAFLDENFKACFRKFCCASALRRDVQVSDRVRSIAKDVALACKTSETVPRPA
T3 sequence (P41968 whole entry): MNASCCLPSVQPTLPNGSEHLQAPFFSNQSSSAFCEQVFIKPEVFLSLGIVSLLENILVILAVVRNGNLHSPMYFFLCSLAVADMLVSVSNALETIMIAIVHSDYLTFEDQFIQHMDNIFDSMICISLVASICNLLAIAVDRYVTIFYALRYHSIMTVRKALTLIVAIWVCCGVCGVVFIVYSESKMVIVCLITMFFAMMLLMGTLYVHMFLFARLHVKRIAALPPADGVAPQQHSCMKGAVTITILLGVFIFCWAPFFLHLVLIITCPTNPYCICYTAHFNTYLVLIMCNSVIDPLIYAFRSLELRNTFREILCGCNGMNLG
T7 sequence (P35372 whole entry): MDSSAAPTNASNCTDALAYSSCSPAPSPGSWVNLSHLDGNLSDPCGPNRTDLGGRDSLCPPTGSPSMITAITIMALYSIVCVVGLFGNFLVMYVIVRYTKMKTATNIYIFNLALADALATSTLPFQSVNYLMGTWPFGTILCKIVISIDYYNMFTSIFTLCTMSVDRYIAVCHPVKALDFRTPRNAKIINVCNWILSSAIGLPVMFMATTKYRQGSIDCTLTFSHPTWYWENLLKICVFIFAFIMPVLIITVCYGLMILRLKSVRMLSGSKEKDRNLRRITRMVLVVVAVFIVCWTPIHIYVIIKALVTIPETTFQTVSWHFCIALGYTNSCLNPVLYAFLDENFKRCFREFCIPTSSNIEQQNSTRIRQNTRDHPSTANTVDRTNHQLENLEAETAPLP
T6 sequence (Q99705 whole entry): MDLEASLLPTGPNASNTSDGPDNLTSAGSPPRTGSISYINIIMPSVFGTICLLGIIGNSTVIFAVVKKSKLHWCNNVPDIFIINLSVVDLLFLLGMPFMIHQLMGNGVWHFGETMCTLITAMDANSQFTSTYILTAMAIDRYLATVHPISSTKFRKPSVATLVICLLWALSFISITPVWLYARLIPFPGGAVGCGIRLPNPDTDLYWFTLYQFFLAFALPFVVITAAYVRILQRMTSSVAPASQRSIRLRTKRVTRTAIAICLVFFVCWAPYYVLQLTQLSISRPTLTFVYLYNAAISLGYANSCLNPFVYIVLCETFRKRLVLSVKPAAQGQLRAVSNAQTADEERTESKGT
T8 sequence (P25103 whole entry): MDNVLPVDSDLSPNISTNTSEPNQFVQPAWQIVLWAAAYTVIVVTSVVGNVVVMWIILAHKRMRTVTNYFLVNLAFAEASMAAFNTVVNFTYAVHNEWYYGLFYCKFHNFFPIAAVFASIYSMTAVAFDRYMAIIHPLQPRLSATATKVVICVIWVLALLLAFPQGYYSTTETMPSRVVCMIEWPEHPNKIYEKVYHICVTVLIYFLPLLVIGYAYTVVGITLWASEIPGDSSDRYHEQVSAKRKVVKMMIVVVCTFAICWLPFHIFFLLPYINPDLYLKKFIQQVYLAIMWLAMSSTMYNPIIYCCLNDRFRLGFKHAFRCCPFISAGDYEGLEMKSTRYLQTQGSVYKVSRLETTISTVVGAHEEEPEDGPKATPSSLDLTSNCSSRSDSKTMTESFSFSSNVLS
T2 sequence (P41145 whole entry): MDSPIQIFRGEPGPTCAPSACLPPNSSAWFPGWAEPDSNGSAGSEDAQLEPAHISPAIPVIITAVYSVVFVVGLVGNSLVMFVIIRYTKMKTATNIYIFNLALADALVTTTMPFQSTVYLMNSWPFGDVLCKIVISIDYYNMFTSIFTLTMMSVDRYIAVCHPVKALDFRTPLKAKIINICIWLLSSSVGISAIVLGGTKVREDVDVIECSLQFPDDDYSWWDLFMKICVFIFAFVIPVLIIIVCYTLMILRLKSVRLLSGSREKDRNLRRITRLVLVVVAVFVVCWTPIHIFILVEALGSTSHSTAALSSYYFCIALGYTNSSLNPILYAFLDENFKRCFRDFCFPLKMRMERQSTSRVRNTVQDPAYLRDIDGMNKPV
T5 sequence (P33032 whole entry): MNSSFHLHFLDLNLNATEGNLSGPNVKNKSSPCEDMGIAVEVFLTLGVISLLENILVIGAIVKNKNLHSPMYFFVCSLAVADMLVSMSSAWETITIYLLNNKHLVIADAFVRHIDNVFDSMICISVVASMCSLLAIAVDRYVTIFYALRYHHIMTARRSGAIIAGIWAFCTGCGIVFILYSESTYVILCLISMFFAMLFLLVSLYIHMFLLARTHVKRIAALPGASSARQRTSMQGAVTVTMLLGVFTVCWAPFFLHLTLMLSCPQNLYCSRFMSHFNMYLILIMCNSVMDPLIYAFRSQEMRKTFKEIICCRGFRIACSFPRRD
T1 sequence (P41143 whole entry): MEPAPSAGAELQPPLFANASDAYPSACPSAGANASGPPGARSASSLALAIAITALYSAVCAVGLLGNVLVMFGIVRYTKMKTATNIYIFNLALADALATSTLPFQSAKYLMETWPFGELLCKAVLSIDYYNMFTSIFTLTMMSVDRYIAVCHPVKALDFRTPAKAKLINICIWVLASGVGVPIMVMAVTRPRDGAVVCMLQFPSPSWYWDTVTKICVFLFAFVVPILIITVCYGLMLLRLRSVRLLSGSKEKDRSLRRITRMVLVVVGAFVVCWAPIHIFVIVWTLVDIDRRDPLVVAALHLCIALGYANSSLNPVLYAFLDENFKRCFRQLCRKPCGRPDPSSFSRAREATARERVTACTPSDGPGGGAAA
T4 sequence (P32245 whole entry): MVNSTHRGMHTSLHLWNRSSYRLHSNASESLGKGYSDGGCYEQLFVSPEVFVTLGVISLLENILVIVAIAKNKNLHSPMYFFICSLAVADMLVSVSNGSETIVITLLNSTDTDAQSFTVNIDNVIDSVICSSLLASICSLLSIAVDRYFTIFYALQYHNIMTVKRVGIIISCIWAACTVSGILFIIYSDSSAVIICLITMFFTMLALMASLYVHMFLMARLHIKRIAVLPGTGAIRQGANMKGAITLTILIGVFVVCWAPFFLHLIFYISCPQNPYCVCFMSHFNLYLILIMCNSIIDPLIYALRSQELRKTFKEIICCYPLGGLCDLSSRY

Structure (SMILES)	A1: inhibition of radioligand binding (Human δ-opioid (DOP))	A2: inhibition of radioligand binding (Human κ-Opioid (KOP))	A3: inhibition of radioligand binding (Human Melanocortin (MC3))	A4: inhibition of radioligand binding (Human Melanocortin (MC4))	A5: inhibition of radioligand binding (Human melanocortin (MC5))	A6: inhibition of radioligand binding [1]	A7: inhibition of radioligand binding (Human μ-opioid (MOP))	A8: inhibition of radioligand binding (Human neurokinin (NK1))	A9: inhibition of radioligand binding [2]	A10: inhibition of radioligand binding (Human opioid (ORL1))	A11: inhibition of radioligand binding (Mouse urotensin (mUR2))
COCC1OC(OCCc2ccccc2)C(NC(=O)CCCNC(=N)N)C(OCc2ccc3ccccc3c2)C1O (stereo not drawn) [compound 229]	− (“−” indicates less than 50% inhibition at 10 μM)	− (“−” indicates less than 50% inhibition at 10 μM)	− (“−” indicates less than 50% inhibition at 10 μM)	+ (“+” indicates greater than 50% inhibition at 10 μM)	+ (“+” indicates greater than 50% inhibition at 10 μM)	+ (“+” indicates greater than 50% inhibition at 10 μM)	− (“−” indicates less than 50% inhibition at 10 μM)	+ (“+” indicates greater than 50% inhibition at 10 μM)	− (“−” indicates less than 50% inhibition at 10 μM)	− (“−” indicates less than 50% inhibition at 10 μM)	− (“−” indicates less than 50% inhibition at 10 μM)
COCC1OC(OCc2ccc3ccccc3c2)C(NC(=O)CNC(=N)N)C(OCc2ccccc2)C1O (stereo not drawn) [compound 230]	− (“−” indicates less than 50% inhibition at 10 μM)	− (“−” indicates less than 50% inhibition at 10 μM)	− (“−” indicates less than 50% inhibition at 10 μM)	− (“−” indicates less than 50% inhibition at 10 μM)	+ (“+” indicates greater than 50% inhibition at 10 μM)	− (“−” indicates less than 50% inhibition at 10 μM)	− (“−” indicates less than 50% inhibition at 10 μM)	+ (“+” indicates greater than 50% inhibition at 10 μM)	− (“−” indicates less than 50% inhibition at 10 μM)	− (“−” indicates less than 50% inhibition at 10 μM)	− (“−” indicates less than 50% inhibition at 10 μM)
COCC1OC(OCc2ccc3ccccc3c2)C(NC(=O)CCN)C(OCc2ccccc2)C1O (stereo not drawn) [compound 231]	− (“−” indicates less than 50% inhibition at 10 μM)	− (“−” indicates less than 50% inhibition at 10 μM)	− (“−” indicates less than 50% inhibition at 10 μM)	− (“−” indicates less than 50% inhibition at 10 μM)	− (“−” indicates less than 50% inhibition at 10 μM)	− (“−” indicates less than 50% inhibition at 10 μM)	− (“−” indicates less than 50% inhibition at 10 μM)	+ (“+” indicates greater than 50% inhibition at 10 μM)	− (“−” indicates less than 50% inhibition at 10 μM)	− (“−” indicates less than 50% inhibition at 10 μM)	− (“−” indicates less than 50% inhibition at 10 μM)
COCC1OC(OCc2ccc3ccccc3c2)C(NC(=O)CCNC(=N)N)C(OCc2ccccc2)C1O (stereo not drawn) [compound 232]	− (“−” indicates less than 50% inhibition at 10 μM)	− (“−” indicates less than 50% inhibition at 10 μM)	− (“−” indicates less than 50% inhibition at 10 μM)	− (“−” indicates less than 50% inhibition at 10 μM)	− (“−” indicates less than 50% inhibition at 10 μM)	− (“−” indicates less than 50% inhibition at 10 μM)	− (“−” indicates less than 50% inhibition at 10 μM)	+ (“+” indicates greater than 50% inhibition at 10 μM)	− (“−” indicates less than 50% inhibition at 10 μM)	− (“−” indicates less than 50% inhibition at 10 μM)	− (“−” indicates less than 50% inhibition at 10 μM)
COCC1OC(OCc2ccc3ccccc3c2)C(NC(=O)CCCN)C(OCc2ccccc2)C1O (stereo not drawn) [compound 233]	− (“−” indicates less than 50% inhibition at 10 μM)	− (“−” indicates less than 50% inhibition at 10 μM)	− (“−” indicates less than 50% inhibition at 10 μM)	− (“−” indicates less than 50% inhibition at 10 μM)	− (“−” indicates less than 50% inhibition at 10 μM)	− (“−” indicates less than 50% inhibition at 10 μM)	− (“−” indicates less than 50% inhibition at 10 μM)	+ (“+” indicates greater than 50% inhibition at 10 μM)	− (“−” indicates less than 50% inhibition at 10 μM)	− (“−” indicates less than 50% inhibition at 10 μM)	− (“−” indicates less than 50% inhibition at 10 μM)
COCC1OC(OCc2ccc3ccccc3c2)C(NC(=O)CCCNC(=N)N)C(OCc2ccccc2)C1O (stereo not drawn) [compound 234]	− (“−” indicates less than 50% inhibition at 10 μM)	− (“−” indicates less than 50% inhibition at 10 μM)	− (“−” indicates less than 50% inhibition at 10 μM)	− (“−” indicates less than 50% inhibition at 10 μM)	− (“−” indicates less than 50% inhibition at 10 μM)	− (“−” indicates less than 50% inhibition at 10 μM)	− (“−” indicates less than 50% inhibition at 10 μM)	+ (“+” indicates greater than 50% inhibition at 10 μM)	− (“−” indicates less than 50% inhibition at 10 μM)	− (“−” indicates less than 50% inhibition at 10 μM)	− (“−” indicates less than 50% inhibition at 10 μM)

Source: patent US20080009418A1, “Selective Inhibitors” (Alchemia LTD., priority 2004, published 2008)
